Here are results for 1 molecule from patent US12257326B2, “TCO conjugates and methods for delivery of therapeutic agents” (THE REGENTS OF THE UNIVERSITY OF CALIFORNIA, priority 2014, dated 2025).

The structures appear in SMILES notation.

Data set [1] in a line: In-vivo kinetic multiple dose evaluation of fluorescence (IVIS Spectrum). Further details: species or system mice. The settings on record: 50 nmoles per tail vein injection; Tz-Me-gel group vs no gel and unmodified alginate gel; paired T-test, n=3. On the procedure: Three mice were evaluated after each injection of 50 nmoles of TCO-R-Rhodamine through tail vein injection. The mice were treated as described above their images. […] The “released” subject received an injection in the subcutaneous back of Tz-Me-gel. The “gel control” subject received an injection in the subcutaneous back of alginate gel. The mice were evaluated with an IVIS Spectrum machine after 5-10 minutes and 110-150 minutes after each dose of fluorophore.
Compared by paired T-test (n=3).
(§1) For in-vivo experiments, 800 μl of 2.5% alginate solution were mixed with 200 μl of supersaturated […] solution (0.21 g Ca(SO4)2/ml ddH2O). The solutions were mixed for 30 s using a three-way stopcock to achieve a final alginate concentration of 2%. The mixture was immediately injected to the animal in the desired amount.

The nature of data set [2]: In-vivo kinetic biodistribution of fluorescence after TCO-R-Rhodamine injection. The conditions noted are these: Tz-Me-Gel (released) vs negative control (no gel injection). Further details: species or system mice. How it is done: The bar graph extrapolates the data to a presumed total amount achieved in 8 hours.
as §1
After IACUC approval, in-vivo real-time biodistribution studies of fluorescence were carried out in nu/nu mice (n=2 per condition) by injecting either nothing or a type of alginate (control vs Tz-Gel). Then subjects received a tail-vein injection of TCO-R-F or TCO-NR-F. The negative controls were: 1. No gels with TCO-R-F (Negative control, mouse 1); 2. control alginate with TCO-R-F (Gel control, mouse 4). The two experimental groups were Tz-gel and either TCO-R-F (Released protocol, mouse 2) or TCO-NR-F (Immobilized protocol, mouse 3). Fluorescence was measured with an IVIS Spectrum (Perkin Elmer, MA) and reported in radiance.

With `CN(C)c1ccc2c(-c3ccc(C(=O)NCCNC(=O)OC4/C=C/CCCCC4)cc3C(=O)O)c3ccc(=[N+](C)C)cc-3oc2c1` (centres unmarked) [TCO-R-Rhodamine, (E)-5-((2-(((cyclooct-2-cn-1-yloxy)carbonyl)amino)ethyl)carbamoyl)-2-(3-(dimethyl-Π^4-azanylidene)-6-(dimethylamino)-3H-xanthen-9-yl)benzoic acid], the “average fluorescence at 5-10 minutes vs 110-150 minutes after second, third & fourth injection” value in data set [1] is recorded as “statistically higher”. Moreover, the “dose reflected by the area under the curve of fluorescence, extrapolated to total amount in 8 hours” value in data set [2] is listed as “almost doubled”.
